# Laboratory results: patent US12590062B2, “PD-1/PD-L1 inhibitors” (Gilead Sciences, Inc., priority 2017, dated 2026)
# Assays:
# PD-1/PD-L1 = PD-1/PD-L1 (Homo sapiens, UniProt Q9NZQ7); assay: PD-1/PD-L1 biochemical protein-protein interaction assay (ALPHA); type: binding; conditions: 0.3 nM His tagged PD-L1, 2.5 nM biotinylated Fc-PD-1, 60 minutes at 25° C., read-out: IC50 PD-L1-PD-1 Alpha IC50-mono PD-L1-fcP-D1
# Outline: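 Compounds are tested for blocking the PD-1/PD-L1 extracellular-domain interaction using an ALPHA bead assay, in which inhibition lowers the luminescent signal. Reactions run 60 min at 25° C with 0.3 nM His-PD-L1 and 2.5 nM biotinylated Fc-PD-1. IC50 values come from four-parameter fits.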
# PD-1/PD-L1 interaction = target: T1, PD-1/PD-L1 interaction (Homo sapiens, UniProt Q9NZQ7); assay: PD-1/PD-L1 NFAT reporter co-culture assay; type: cell-based; conditions: Jurkat PD-1 NFAT-luciferase cells co-cultured with aAPC-PD-L1 CHO cells, 6 hrs at 37° C.; read-out: EC50 NFAT Luciferase
# T1 construct: expressed in transfected cells; host or cells: CHO cells (aAPC-PD-L1) co-cultured with Jurkat cells overexpressing PD-1 and an NFAT-luciferase reporter
# T1 sequence (Q9NZQ7 19-290): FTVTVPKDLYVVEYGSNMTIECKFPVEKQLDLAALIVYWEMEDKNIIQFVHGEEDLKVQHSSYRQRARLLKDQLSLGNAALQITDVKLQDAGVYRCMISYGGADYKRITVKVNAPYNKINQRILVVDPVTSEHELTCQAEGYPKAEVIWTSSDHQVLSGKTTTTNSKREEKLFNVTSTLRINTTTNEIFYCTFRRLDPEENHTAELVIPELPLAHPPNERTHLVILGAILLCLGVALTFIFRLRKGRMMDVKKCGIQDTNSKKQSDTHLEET
# Outline: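 CHO aAPC-PD-L1 seeded overnight; PD-1/NFAT-luc Jurkat + cpd in RPMI 1640, 2% FBS added at once; 6 h, 37 °C; ONE-Glo luminescence; EC50, 4-parameter fit.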
# PD-L1 = target: T2, PD-L1 (Homo sapiens, UniProt Q9NZQ7); assay: PD-L1/PD-L1 dimerization biochemical protein-protein interaction assay (ALPHA); type: binding; conditions: compound-induced PD-L1 dimerization, head prints '1 nM' (0.5 nM His-tagged PD-L1 and 0.5 nM FLAG-tagged PD-L1), read-out: AC50 PDL1 Dimer Alpha 1 nM
# T2 construct: determine if they can specifically dimerize the extracellular domains of PD-L1
# T2 sequence (Q9NZQ7 19-238 limits assumed): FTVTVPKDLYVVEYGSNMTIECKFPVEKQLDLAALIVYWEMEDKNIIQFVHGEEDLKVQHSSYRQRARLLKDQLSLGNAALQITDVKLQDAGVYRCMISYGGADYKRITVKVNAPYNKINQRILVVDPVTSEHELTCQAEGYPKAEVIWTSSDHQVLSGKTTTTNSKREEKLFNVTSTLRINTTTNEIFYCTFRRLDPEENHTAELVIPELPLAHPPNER
# T2 sequence (Q9NZQ7 19-238 limits assumed): as above
# Outline: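 ALPHA proximity assay of compound-induced dimerization of 0.5 nM His-tagged and 0.5 nM FLAG-tagged PD-L1 extracellular domains in Hepes pH 7.4 buffer, 2 h at 25 °C. Anti-His acceptor then anti-FLAG donor beads, 60 min each; AC50 from four-parameter fit.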
# Chain of PD-1/PD-L1 (Q9NZQ7 19-238 limits assumed): as above
IC50 (PD-1/PD-L1) [nM],EC50 (PD-1/PD-L1 interaction) [nM],AC50 (PD-L1) [nM],SMILES
0.088,117,134,Cc1c(COc2cc(OCc3cncc(C#N)c3)c(CN[C@@](C)(CO)C(=O)O)cc2Cl)cccc1-c1cccc(-c2ccc3c(cnn3CCN3CC[C@@H](O)C3)n2)c1C [Example 475]
1.11,196,149,Cn1cc(CN2CC3(CCC(=O)N3)C2)c2ccc(-c3cccc(-c4cccc(-c5ccc6c(CN7CC8(CCC(=O)N8)C7)cn(C)c6n5)c4Cl)c3Cl)nc21 [Example 476]
1.04,179,360,COc1cc(-c2cccc(-c3cccc(-c4ccc(CNC[C@@H]5CCC(=O)N5)c(OC)c4)c3Br)c2Br)ccc1CNC[C@@H]1CCC(=O)N1 [Example 477]
0.064,48,268,C[C@@](CO)(NCc1cc(Cl)c(OCc2cccc(-c3cccc(COc4cc(OCc5cncc(C#N)c5)c(CN[C@@](C)(CO)C(=O)O)cc4Cl)c3Br)c2Br)cc1OCc1cncc(C#N)c1)C(=O)O [Example 478]
0.098,45,348,N#Cc1cncc(COc2cc(OCc3cccc(-c4cccc(COc5cc(OCc6cncc(C#N)c6)c(CNC[C@@H](O)CC(=O)O)cc5Cl)c4Br)c3Br)c(Cl)cc2CNC[C@@H](O)CC(=O)O)c1 [Example 479]
1.12,147,114,Cc1c(COc2cc(OCc3cncc(C#N)c3)c(CNCCO)cc2Cl)cccc1-c1cccc(COc2cc(OCc3cncc(C#N)c3)c(CNCCO)cc2Cl)c1Br [Example 480]
0.064,155,92.9,Cc1c(COc2cc(OCc3cncc(C#N)c3)c(CN[C@@](C)(CO)C(=O)O)cc2Cl)cccc1-c1cccc(COc2cc(OCc3cncc(C#N)c3)c(CN[C@@](C)(CO)C(=O)O)cc2Cl)c1Br [Example 481]
0.064,47,25.5,Cc1c(COc2cc(OCc3cncc(C#N)c3)c(CNC(C)(C)C(=O)O)cc2Cl)cccc1-c1cccc(-c2ccc(CN(C)C)cc2)c1Br [Example 482]
0.064,69,40.9,Cc1c(COc2cc(OCc3cncc(C#N)c3)c(CN[C@@](C)(CO)C(=O)O)cc2Cl)cccc1-c1cccc(-c2ccc(CN(C)C)cc2)c1Br [Example 483]
0.205,138,108,Cc1c(COc2cc(OCc3cncc(C#N)c3)c(CNC[C@@H](O)CC(=O)O)cc2Cl)cccc1-c1cccc(-c2ccc(CN(C)C)cc2)c1Br [Example 484]
0.321,200,61.3,CS(=O)(=O)c1cncc(COc2nc(OCc3cccc(-c4cccc(-c5ccc(OCCNCCO)cc5)c4Cl)c3Cl)c(Cl)cc2CNC[C@@H](O)CC(=O)O)c1 [Example 485]
0.064,16,25.2,COc1nc(O[C@H]2CCc3c(-c4cccc(-c5cc(C)c(CNC[C@@H]6CCC(=O)N6)c(OC)n5)c4Cl)cccc32)c(Cl)cc1CN1CC(C(=O)O)C1 [Example 487]

# The next lines start with the molecule.
SMILES,IC50 (PD-1/PD-L1) [nM],EC50 (PD-1/PD-L1 interaction) [nM],AC50 (PD-L1) [nM]
Cc1c(COc2cc(OCc3cncc(C#N)c3)c(CNCCO)cc2Cl)cccc1-c1cccc(-c2ccc(CN(C)C)cc2)c1Br [Example 450],1.56,277,110
Cc1c(COc2cc(OCc3cncc(C#N)c3)c(CNC(C)(CO)C(=O)O)cc2Cl)cccc1-c1cccc(-c2ccc(CN3CC4(CNC4)C3)cc2)c1C (stereo not drawn) [Example 451],0.104,472,105
Cc1c(COc2cc(OCc3cncc(C#N)c3)c(CNC[C@@H](O)CC(=O)O)cc2Cl)cccc1-c1cccc(-c2cnc3c(CNC[C@@H](O)CC(=O)O)cccc3c2)c1C [Example 452],0.076,253,144
Cc1c(COc2cc(OCc3cncc(C#N)c3)c(CN[C@@](C)(CO)C(=O)O)cc2Cl)cccc1-c1cccc(-c2nnc(CCN3CC[C@@H](O)C3)o2)c1C [Example 453],0.111,895,326
Cc1c(COc2cc(OCc3cncc(C#N)c3)c(CN3CC[C@@H](O)C3)cc2Cl)cccc1-c1cccc(-c2ncc(CN3CC[C@@H](O)C3)cn2)c1C [Example 454],1.01,953,943
Cc1c(COc2cc(OCc3cncc(C#N)c3)c(CN[C@@](C)(CO)C(=O)O)cc2Cl)cccc1-c1cccc(-c2ncc(CN3CC[C@@H](O)C3)cn2)c1C [Example 455],0.172,1540,686
Cc1c(COc2cc(OCc3cncc(C#N)c3)c(CNC[C@@H](O)CC(=O)O)cc2Cl)cccc1-c1cccc(-c2ccc(OCCNCCO)c(C(N)=O)c2)c1C [Example 456],0.269,1230,182
Cc1c(COc2cc(OCc3cncc(C#N)c3)c(CN[C@@](C)(CO)C(=O)O)cc2Cl)cccc1-c1cc(F)cc(-c2ccc(CN(C)C)cc2)c1Cl [Example 457],0.064,1560,49.3
CNC(=O)c1cc(-c2cccc(-c3cccc(COc4cc(OCc5cncc(C#N)c5)c(CNC[C@@H](O)CC(=O)O)cc4Cl)c3C)c2C)ccc1OCCNCCO [Example 458],0.325,429,139
Cc1c(COc2cc(OCc3cncc(C#N)c3)c(CN[C@@](C)(CO)C(=O)O)cc2Cl)cccc1-c1cccc(-c2ccc(OCCNCCO)c(C(=O)NC3CC3)c2)c1C [Example 459],0.064,1200,89.9
Cc1c(COc2cc(OCc3cncc(C#N)c3)c(CNC[C@@H](O)CC(=O)O)cc2Cl)cccc1-c1cccc(-c2ccc(CNC[C@@H](O)CC(=O)O)c(SC(F)F)c2)c1C [Example 460],0.147,112,302
Cc1c(COc2cc(OCc3cncc(C#N)c3)c(CNC[C@@H](O)CC(=O)O)cc2Cl)cccc1-c1cccc(-c2ccc(CNC[C@@H](O)CC(=O)O)c(OC(F)F)c2)c1C [Example 461],0.064,47,128
N#CCOc1cc(-c2cccc(-c3cccc(-c4ccc(CNC[C@@H]5CCC(=O)N5)c(OCC#N)c4)c3Cl)c2Cl)ccc1CNC[C@@H]1CCC(=O)N1 [Example 463],0.159,123,71.3
Cc1c(COc2cc(OCc3cncc(C#N)c3)c(CNC[C@@H](O)CC(=O)O)cc2Cl)cccc1-c1cccc(-c2ccc(C3=NCCN3)c(OC(F)F)c2)c1C [Example 464],0.099,152,87.6
Cc1c(COc2cc(OCc3cncc(C#N)c3)c(CNC[C@@H](O)CC(=O)O)cc2Cl)cccc1-c1cccc(-c2ccc(C3=NCCN3)c(OCCCC#N)c2)c1C [Example 465],0.116,193,84.8
Cc1c(COc2cc(OCc3cncc(C#N)c3)c(CNC[C@@H](O)CC(=O)O)cc2Cl)cccc1-c1cccc(-c2ccc(C3=NCCN3)c(OCCCC#N)n2)c1C [Example 466],0.064,93,44.1
Cc1c(COc2cc(OCc3cc(S(C)(=O)=O)cc(S(C)(=O)=O)c3)c(CN[C@@](C)(CO)C(=O)O)cc2Cl)cccc1-c1cccc(-c2ccc(CCCN3CC[C@@H](O)C3)cc2)c1C [Example 467],0.161,197,111
COc1ccc2cc(-c3cccc(-c4cccc(COc5cc(OCc6cncc(C#N)c6)c(CNC[C@@H](O)CC(=O)O)cc5Cl)c4C)c3C)ccc2c1CNC[C@@H](O)CC(=O)O [Example 468],0.558,183,131
Cc1c(COc2cc(OCc3cncc(C#N)c3)c(CN[C@@](C)(CO)C(=O)O)cc2Cl)cccc1-c1cccc(-c2ccc3c(c2)ncc(=O)n3CCN(C)C)c1C [Example 469],0.064,125,73.5
Cc1c(COc2cc(OCc3cncc(C(N)=O)c3)c(CN[C@@](C)(CO)C(=O)O)cc2Cl)cccc1-c1cccc(-c2ccc3c(c2)[C@@H](O)C[C@H]3N)c1C [Example 470],0.096,217,127
Cc1c(COc2nc(OCc3cc(C#N)cc(C#N)c3)c(CNC(C)(CO)C(=O)O)cc2Cl)cccc1-c1cccc(-c2ccc(OCCNCCO)cc2)c1C (stereo not drawn) [Example 471],0.205,144,80
Cc1c(COc2cc(OCc3cncc(C#N)c3)c(CNC[C@@H](O)CC(=O)O)cc2Cl)cccc1-c1cccc(-c2ccc3c(c2)CC(NCCO)C3)c1C (stereo partly drawn) [Example 473],0.159,86,76.8
Cc1c(COc2cc(OCc3cncc(C#N)c3)c(CNC[C@@H](O)CC(=O)O)cc2Cl)cccc1-c1cccc(-c2ccc3c(c2)CC(NCC(=O)O)C3)c1C (stereo partly drawn) [Example 474],0.064,59,137
